Earlier results on one compound are cited in US20040138299A1, “Solid pharmaceutical composition comprising 4-cyano-trifluoro-3(4-fluorophenyl-sulphonyl)-2hydroxy-methylpropiono-m toluidide and pvp” (priority 2001, published 2004).

For this data set the following is noted: conventional tablet doses above 300 mg.

Take `CC(O)(CS(=O)(=O)c1ccc(F)cc1)C(=O)Nc1ccc(C#N)c(C(F)(F)F)c1` (stereo not drawn) [bicalutamide, 4′-cyano-α′,α′,α′-trifluoro-3-(4-fluorophenylsulphonyl)-2-hydroxy-2-methylpropiono-m-toluidide]: the “systemic exposure at high dose” value is “no further significant increase in systemic exposure”.
